Experimental data reported in PubChem BioAssay AID248 (DTP/NCI, 2004).
Values joined by “and” are separate entries in the source; they are usually repeats but may differ in a detail not shown here. Identical values can stand only once. Inconclusive results and toxic doses are left out. No stated cut-off is given here; in the data, active means T/C of 150% or more; inactive means T/C below 125%.

Test system: L1210 leukemia ip in BDF1 mice, survival T/C
Experiment: NCI In Vivo Anticancer Drug Screen. Data for tumor model L1210 Leukemia (intraperitoneal) in B6D2F1 (BDF1) mice
Details: endpoint: mean survival time, higher = longer survival
Procedure, shortened: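 Transplantable tumor model; survival measured in treated vs vehicle control mice. Value = treated/control.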

[1] = dose: 12.5 mg/kg/injection, schedule: Q01DX009 (ip), vehicle: Klucel (hydroxypropylcellulose) (HPC)
[2] = dose: 25.0 mg/kg/injection, schedule: Q01DX009 (ip), vehicle: Klucel (hydroxypropylcellulose) (HPC)
[3] = dose: 25.0 mg/kg/injection, schedule: Q04DX003 (ip), vehicle: Klucel (hydroxypropylcellulose) (HPC)
[4] = dose: 50.0 mg/kg/injection, schedule: Q01DX001 (ip), vehicle: saline
[5] = dose: 100.0 mg/kg/injection, schedule: Q01DX001 (ip), vehicle: saline
[6] = dose: 200.0 mg/kg/injection, schedule: Q01DX001 (ip), vehicle: saline
[7] = dose: 100.0 mg/kg/injection, schedule: Q01DX009 (ip), vehicle: Klucel (hydroxypropylcellulose) (HPC)
[8] = dose: 200.0 mg/kg/injection, schedule: Q01DX009 (ip), vehicle: Klucel (hydroxypropylcellulose) (HPC)
[9] = dose: 400.0 mg/kg/injection, schedule: Q01DX009 (ip), vehicle: Klucel (hydroxypropylcellulose) (HPC)
[10] = dose: 75.0 mg/kg/injection, schedule: Q01DX001 (ip), vehicle: saline
[11] = dose: 150.0 mg/kg/injection, schedule: Q01DX001 (ip), vehicle: saline
[12] = dose: 400.0 mg/kg/injection, schedule: Q01DX001 (ip), vehicle: saline
[13] = dose: 100.0 mg/kg/injection, schedule: Q04DX003 (ip), vehicle: other
[14] = dose: 200.0 mg/kg/injection, schedule: Q04DX003 (ip), vehicle: other
[15] = dose: 100.0 mg/kg/injection, schedule: Q01DX001 (ip), vehicle: carboxymethylcellulose (CMC)
[16] = dose: 200.0 mg/kg/injection, schedule: Q01DX001 (ip), vehicle: carboxymethylcellulose (CMC)
[17] = dose: 400.0 mg/kg/injection, schedule: Q01DX001 (ip), vehicle: carboxymethylcellulose (CMC)

Measured: T/C

CC1C=C(Br)C(=O)c2ccccc2N1S(C)(=O)=O (stereo not drawn)
inactive: dose: 6.0 mg/kg/injection, schedule: Q04DX003 (ip), vehicle: Klucel (hydroxypropylcellulose) (HPC) 98 % of control | dose: 12.0 mg/kg/injection, schedule: Q04DX003 (ip), vehicle: Klucel (hydroxypropylcellulose) (HPC) 92 % of control | [1] 102 % of control | [2] 94 % of control | [3] 93 % of control and 96 % of control

C=C1C(=O)O[C@@H]2/C=C(/C)[C@@]3(O)C=C[C@](C)(C[C@@H](OC(=O)/C(=C\C)COC(C)=O)[C@@H]12)O3
inactive: dose: 0.06 mg/kg/injection, schedule: Q01DX009 (ip), vehicle: carboxymethylcellulose (CMC) 102 % of control | dose: 0.12 mg/kg/injection, schedule: Q01DX009 (ip), vehicle: carboxymethylcellulose (CMC) 101 % of control | dose: 0.25 mg/kg/injection, schedule: Q01DX009 (ip), vehicle: carboxymethylcellulose (CMC) 98 % of control

CC(C)c1cc(O)ccc1O
inactive: dose: 100.0 mg/kg/injection, schedule: Q01DX001 (ip), vehicle: other 102 % of control | dose: 200.0 mg/kg/injection, schedule: Q01DX001 (ip), vehicle: other 94 % of control

O=C1C=C(C(Cl)(Cl)Cl)OC(=O)C1
inactive: dose: 100.0 mg/kg/injection, schedule: Q04DX003 (ip), vehicle: saline with Tween-80 98 % of control | dose: 200.0 mg/kg/injection, schedule: Q04DX003 (ip), vehicle: saline with Tween-80 98 % of control | dose: 400.0 mg/kg/injection, schedule: Q04DX003 (ip), vehicle: saline with Tween-80 93 % of control

COS(=O)(=O)CCC[n+]1ccccc1
inactive: [4] 98 % of control | [5] 96 % of control | [6] 96 % of control

COC(=O)Nc1ccc(N)c(NC(=O)OC)n1
inactive: [7] 92 % of control | dose: 100.0 mg/kg/injection, schedule: Q04DX003 (ip), vehicle: Klucel (hydroxypropylcellulose) (HPC) 106 % of control | [8] 89 % of control | dose: 200.0 mg/kg/injection, schedule: Q04DX003 (ip), vehicle: Klucel (hydroxypropylcellulose) (HPC) 99 % of control | [9] 87 % of control | dose: 400.0 mg/kg/injection, schedule: Q04DX003 (ip), vehicle: Klucel (hydroxypropylcellulose) (HPC) 100 % of control

CC(=O)OC1=CCC(C(C)(C)C)CC1 (stereo not drawn)
inactive: [1] 107 % of control | dose: 12.5 mg/kg/injection, schedule: Q04DX003 (ip), vehicle: Klucel (hydroxypropylcellulose) (HPC) 96 % of control | [2] 93 % of control | [3] 102 % of control | dose: 50.0 mg/kg/injection, schedule: Q04DX003 (ip), vehicle: Klucel (hydroxypropylcellulose) (HPC) 106 % of control

CC[N+](C)(CC)CC[N+]1(C)CC2CC=CCC2C1 (stereo not drawn)
inactive: dose: 222.0 mg/kg/injection, schedule: Q01DX Z (ip), vehicle: saline 94 % of control | dose: 333.0 mg/kg/injection, schedule: Q01DX Z (ip), vehicle: saline 97 % of control | dose: 500.0 mg/kg/injection, schedule: Q01DX Z (ip), vehicle: saline 94 % of control

COc1ccc(NC(=S)Nc2ccccc2)c(Cl)c1
inactive: dose: 100.0 mg/kg/injection, schedule: Q04DX002 (ip), vehicle: Klucel (hydroxypropylcellulose) (HPC) 105 % of control | dose: 200.0 mg/kg/injection, schedule: Q04DX002 (ip), vehicle: Klucel (hydroxypropylcellulose) (HPC) 97 % of control | dose: 400.0 mg/kg/injection, schedule: Q04DX002 (ip), vehicle: Klucel (hydroxypropylcellulose) (HPC) 108 % of control

CC(C)C(=O)c1ccccc1C(=O)O
inactive: dose: 50.0 mg/kg/injection, schedule: Q01DX009 (ip), vehicle: saline with Tween-80 93 % of control | dose: 100.0 mg/kg/injection, schedule: Q01DX009 (ip), vehicle: saline with Tween-80 93 % of control | dose: 200.0 mg/kg/injection, schedule: Q01DX009 (ip), vehicle: saline with Tween-80 93 % of control

CC(=O)c1ccc(P(=O)(O)O)cc1
inactive: [10] 96 % of control | [11] 102 % of control | dose: 300.0 mg/kg/injection, schedule: Q01DX001 (ip), vehicle: saline 98 % of control

CN1CCCN(CCOC(c2ccccc2)c2ccccc2)CC1
inactive: dose: 55.0 mg/kg/injection, schedule: Q01DX Z (ip), vehicle: methylcellulose (MC) 93 % of control | dose: 83.0 mg/kg/injection, schedule: Q01DX Z (ip), vehicle: methylcellulose (MC) 92 % of control

O=C(CSc1ccc([N+](=O)[O-])cc1)c1ccccc1
inactive: [4] 104 % of control | [5] 98 % of control | [6] 91 % of control | [12] 96 % of control

NS(=O)(=O)c1ccc(N=NN2CCOCC2)cc1
inactive: dose: 100.0 mg/kg/injection, schedule: Q04DX002 (ip), vehicle: saline with Tween-80 115 % of control | dose: 200.0 mg/kg/injection, schedule: Q04DX002 (ip), vehicle: saline with Tween-80 108 % of control | dose: 400.0 mg/kg/injection, schedule: Q04DX002 (ip), vehicle: saline with Tween-80 115 % of control

Cc1cn(C2OC(CO)C(O)C(O)C2N)c(=O)[nH]c1=O (stereo not drawn)
inactive: [4] 107 % of control | [5] 97 % of control and 103 % of control | [6] 97 % of control and 108 % of control | [12] 103 % of control and 105 % of control

CC1Oc2ccccc2-c2c(-c3ccccc3)nnc(-c3ccccc3)c21 (stereo not drawn)
inactive: dose: 100.0 mg/kg/injection, schedule: Q04DX003 (ip), vehicle: gum acacia 95 % of control | dose: 200.0 mg/kg/injection, schedule: Q04DX003 (ip), vehicle: gum acacia 102 % of control | dose: 400.0 mg/kg/injection, schedule: Q04DX003 (ip), vehicle: gum acacia 98 % of control

O=C(O)c1cc(=O)c2ccc(Cl)cc2[nH]1
inactive: [5] 90 % of control | [13] 88 % of control | [6] 98 % of control | [14] 91 % of control | [12] 102 % of control | dose: 400.0 mg/kg/injection, schedule: Q04DX003 (ip), vehicle: other 98 % of control

O=C(N/N=C/c1ccccc1[N+](=O)[O-])c1ccccc1
inactive: [7] 94 % of control | [8] 94 % of control | [9] 97 % of control

CC(COC(=O)c1ccc(N)cc1)NC1CCCC1 (stereo not drawn)
inactive: [10] 97 % of control | [11] 105 % of control

OC(C=C(C(F)(F)F)C(F)(F)F)c1cccc(Cl)c1 (stereo not drawn)
inactive: dose: 100.0 mg/kg/injection, schedule: Q04DX003 (sc), vehicle: olive oil, sesame oil, peanut oil 97 % of control | dose: 200.0 mg/kg/injection, schedule: Q04DX003 (sc), vehicle: olive oil, sesame oil, peanut oil 95 % of control | dose: 400.0 mg/kg/injection, schedule: Q04DX003 (sc), vehicle: olive oil, sesame oil, peanut oil 91 % of control

O=C1c2ccccc2CC1(Br)Br
inactive: [13] 96 % of control | [14] 93 % of control

O=C1c2ccccc2-c2cc(Cl)c([N+](=O)[O-])cc21
inactive: dose: 50.0 mg/kg/injection, schedule: Q01DX001 (ip), vehicle: carboxymethylcellulose (CMC) 98 % of control | [15] 96 % of control | [16] 98 % of control | [17] 91 % of control

COc1cc(-c2ccccc2)c([N+](=O)[O-])cc1[N+](=O)[O-]
inactive: [15] 107 % of control | [16] 110 % of control | [17] 116 % of control
